According to patent US20060062739A1 (priority 2004, published 2006):

Tests used:
[1] = system: subjects with severe asthma treated with oral corticosteroids; assay: Lidocaine for reducing concurrent corticosteroids in steroid dependent severe asthma (Example 7); format: in vivo, human; settings: interim, all patients past visit 7
[2] = system: mild to moderate asthma patients; settings: human, in vivo

CCN(CC)CC(=O)Nc1c(C)cccc1C [lidocaine, acetamide 2-(diethylamino)-N-(2,6-dimethylphenyl)]
relation of reported adverse events to treatment [1]: None of the reported adverse events were thought to be related to the lidocaine treatment
bronchospasm (decrease in FEV1 >20% 30 min after aerosol administration) [2]: no reports of bronchospasm
loss of gag reflex [2]: No loss of gag reflex was reported
tolerability and safety overall [2]: no significant adverse events related to study drug
tracheal aspiration of food or liquid [2]: No case of tracheal aspiration of food or liquid was reported
